According to patent publication US9951055B2, “Thiazole-based inhibitors of scavenger receptor BI” (THE BROAD INSTITUTE, INC., priority 2012, dated 2018):
Like-named read-outs stand apart in the source and are kept apart here.

Legend:
[1] = biological target: T1, murine SR-BI (Mus musculus, UniProt Q61009); experiment: DiI-HDL uptake assay with extended washout; type: cell-based; conditions: after a 4-hour washout period
T1 construct: expressed in transfected cells; host or cells: ldlA[mSR-BI]; (CHO ldlA7 derivative lacking the LDL receptor)
T1 sequence (Q61009 1-509): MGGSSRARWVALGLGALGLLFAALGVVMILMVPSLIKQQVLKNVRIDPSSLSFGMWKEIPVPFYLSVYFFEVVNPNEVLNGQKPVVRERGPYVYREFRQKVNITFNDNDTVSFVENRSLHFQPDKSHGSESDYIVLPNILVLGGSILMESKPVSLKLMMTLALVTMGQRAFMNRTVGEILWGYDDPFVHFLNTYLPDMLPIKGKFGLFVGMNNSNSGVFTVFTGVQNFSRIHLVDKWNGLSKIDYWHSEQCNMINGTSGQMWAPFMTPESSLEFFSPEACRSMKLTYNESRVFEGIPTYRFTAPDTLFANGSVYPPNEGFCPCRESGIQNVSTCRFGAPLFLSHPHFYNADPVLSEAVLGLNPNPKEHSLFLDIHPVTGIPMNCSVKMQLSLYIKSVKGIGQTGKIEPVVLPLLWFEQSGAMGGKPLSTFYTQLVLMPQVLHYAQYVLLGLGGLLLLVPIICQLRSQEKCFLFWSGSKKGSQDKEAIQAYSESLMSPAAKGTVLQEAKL
Description: DiI-HDL Uptake Assay with Extended Washout (SA 5: AID No. 602154)
This is another modification of the primary assay where cells are pretreated with compound but no compound is present during a 4-hour washout period or the subsequent 3-hour DiI-HDL treatment period. […] Cells were treated with compound for 3 hours, then were washed four times with PBS, once with lipoprotein-free media (Ham's F12/0.5% fatty acid-free Bovine Serum Albumin [BSA]/25 mM HEPES pH 7.4), and then returned to the incubator with lipoprotein-free media for 4 hours. Media were then removed and cells were washed with PBS before fresh lipoprotein-free media (Ham's F12/0.5% fatty acid-free Bovine Serum Albumin [BSA]/25 mM HEPES pH 7.4) was added with […] DiI-HDL. Cells took up the DiI via SR-BI over 3 hours in the absence of compound. After significant uptake of the DiI, the cells became fluorescent. The level of fluorescence correlates with the amount of DiI uptake and can be measured with a standard plate reader. The uptake of lipid (represented by DiI) was inhibited by the compound BLT-1 or with an excess of HDL untreated with DiI.

[2] = biological target: T2, SR-BI (Mus musculus, UniProt Q61009); experiment: 125I-HDL binding assay; set-up: expressed in transfected cells
T2 sequence (Q61009 1-509): T1 sequence (Q61009 1-509)
Description: In a binding assay, ^125I-HDL binding to cells (4° C. or 37° C.) was measured for 2 h in the absence (total activity) or presence (nonspecific activity) of a 40-fold excess of unlabeled HDL. Stably transfected cells were seeded in the wells of 24-well plates (50,000 cells per well) in Ham's F12 medium containing 2 mM L-glutamine, 50 units/mL penicillin per 50 μg/mL streptomycin (medium A) supplemented with 5% (vol/vol) FBS and 0.25 mg/mL G418 (medium B) on day 0, and binding assays were performed on day 2. The cells were washed twice with prewarmed (37° C.) medium A plus 0.5% (wt/vol) BSA (medium C) prior to adding ^125I-HDL. For binding assays performed at 4° C., the assay plates were removed from the incubator, precooled for 30 min on ice in a cold room (4° C.), and then washed twice with cold (4° C.) medium C supplemented with 10 mM Hepes, pH 7.4, prior to adding ^125I-HDL. Specific binding or uptake is the difference between total and nonspecific activities. In assays using small molecule inhibitors (all incubations at 37° C.), immediately prior to incubation with ^125I-HDL, the cells were washed twice with medium A, preincubated with the small molecules for 1 h, and then incubated with radiolabeled lipoproteins as described above, all in medium C plus 0.5% (vol/vol) DMSO in the presence of the indicated concentrations of small molecules.

[3] = Stability in PBS; type: physicochemical; conditions: PBS (1% DMSO), over 48 hours
Description: The stability of the probe in PBS (1% DMSO) was measured over 48 hours. We noticed that the concentration of the probe fluctuated through the course of the assay (data not shown). We believe that this fluctuation is due to the low solubility of the probe. Thus, we decided to determine the amount of undissolved probe present in the well after it was treated with PBS for a given length of time, relative to the amount of undissolved probe at the start of the assay. The wells were centrifuged and the supernatant was removed after various time points, then acetonitrile was added to dissolve the remaining solid in the wells, and the amount of probe was quantified. […] The stability of the probe was confirmed by measuring stability in human plasma, with >99% remaining after a 5-hour incubation period. […] FIG. 5 provides a tablular summary of Known Probe (ML278) Properties Computed from Structure.

[4] = biological target: T2, SR-BI; experiment: Cholesterol efflux assay; type: cell-based; set-up: expressed in transfected cells
Description: SR-BI also mediates bidirectional flux (e.g. efflux) of unesterified or ‘free’ cholesterol (FC) between cells and HDL or other acceptors. In vivo, the greatest SR-BI-mediated selective uptake occurs in the liver and steroidogenic organs. This assay is used to determine if the compounds alter the efflux of FC to HDL.
On Day 0, 50,000 cells per well were plated in 24-well plates. On the following day, the media was removed and [^3H]cholesterol in lipoprotein-deficient media was added. On Day 1, the medium was replaced with Ham's F12 medium supplemented with 10% bovine lipoprotein deficient serum with 1 μCi/ml [1,2-^3H]cholesterol (40-60 Ci/mmol). On Day 3, the cells were washed to remove serum and incubated in Ham's F12 plus 1% fatty acid-free BSA. On Day 4, the cells were washed and pretreated with compounds for 1 hour. Subsequently, the cells were incubated for an additional 2 hours with the same concentrations of small molecules and with unlabeled HDL (final HDL concentration of 100 μg protein/ml). The medium was collected to determine released cholesterol, and the cells were lysed. The amount of [^3H]cholesterol in the medium and cells was determined using liquid scintillation counting. Total cellular [^3H]cholesterol was calculated as the sum of the radioactivity in the efflux medium plus the radioactivity in the cells and was used to calculate the [^3H]cholesterol efflux (percent of total [^3H]cholesterol released into the medium).

[5] = Plasma protein binding; type: in vitro ADME; conditions: human plasma; read-out: plasma protein binding, bound (converted)

SMILES | IC50 [1] [nM] | IC50 ([2]; 37° C., 1 h preincubation with compound, read-out: IC50) [nM] | IC50 ([2]; range, read-out: measured range of IC50) [nM] | stability in PBS [3] | reduction of efflux of free cholesterol from cells ([4]; during the course of the assay) | inhibition of efflux of cholesterol ([4]; listed as Probe 278) | inhibition of efflux of cholesterol ([4]; listed as compound of Formula (II)) | fraction unbound [5]
CCCCCCC1CCCC1=NNC(N)=S (centres unmarked) [BLT-1, reference compound] | 0.6 | – | – | – | – | – | – | –
COCC(=O)N1CCc2cc(-c3csc(NC(=O)c4cc(OC)cc(OC)c4)n3)ccc21 [Compound 137, 3,5-Dimethoxy-N-(4-(1-(2-methoxyacetyl)indolin-5-yl)thiazol-2-yl)benzamide] | – | 5.7 | 0.93 to 6 | stable to PBS | up to 50% | Inhibits efflux of cholesterol | inhibit efflux of cholesterol | 0.065
